Source: the supplement of paper PMC9938120

Key:
Test in all cases: drug sensitivity score (DSS3, normalised partial AUC of % inhibition dose-response) (DSS (score)); higher = more sensitive (stronger inhibition of viability); extreme values may be limits of the assay
FMOC02_1 = patient-derived low-grade serous ovarian cancer cells; settings: 72 h; library: FO5A; assay format: 2D, 384-well, CellTiter-Glo
How it was run: (§1)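 Cells were dispensed onto 384-well flat clear-bottom plates already holding compounds at five concentrations over a 10,000-fold range, using patient-derived ovarian cancer cells at passage under 10. Incubation lasted 72 h at 37 °C in 5% CO2, after which CellTiter-Glo viability data were processed in Breeze. Higher drug sensitivity scores, each a partial area under the percent-inhibition dose-response curve divided by the log of the upper asymptote, mean more sensitive cells.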

FMOC02_2 = patient-derived low-grade serous ovarian cancer cells; settings: 72 h; library: FO5A; assay format: 2D, 384-well, CellTiter-Glo
How it was run: as §1

FMOC02_3 = patient-derived low-grade serous ovarian cancer cells; settings: 72 h; library: FO5A; assay format: 2D, 384-well, CellTiter-Glo
How it was run: as §1

FMOC03 = patient-derived mucinous ovarian cancer cells; settings: 72 h; library: FO5A; assay format: 2D, 384-well, CellTiter-Glo
How it was run: as §1

FMOC04 = patient-derived high-grade serous ovarian cancer cells; settings: 72 h; library: FO5A; assay format: 2D, 384-well, CellTiter-Glo
How it was run: as §1

FMOC06 = patient-derived mucinous ovarian cancer cells; settings: 72 h; library: FO5A; assay format: 2D, 384-well, CellTiter-Glo
How it was run: as §1

FMOC09 = patient-derived high-grade serous ovarian cancer cells; settings: 72 h; library: FO5A; assay format: 2D, 384-well, CellTiter-Glo
How it was run: as §1

FMOC11 = patient-derived high-grade serous ovarian cancer cells; settings: 72 h; library: FO5A; assay format: 2D, 384-well, CellTiter-Glo
How it was run: as §1

FMOC14 = patient-derived high-grade serous ovarian cancer cells; settings: 72 h; library: FO5A; assay format: 2D, 384-well, CellTiter-Glo
How it was run: as §1

FMOC17 = patient-derived low-grade serous ovarian cancer cells; settings: 72 h; library: FO5A; assay format: 2D, 384-well, CellTiter-Glo
How it was run: as §1

FMOC22 = patient-derived mucinous ovarian cancer cells; settings: 72 h; library: FO5A; assay format: 2D, 384-well, CellTiter-Glo
How it was run: as §1

FMOC24 = patient-derived high-grade serous ovarian cancer cells; settings: 72 h; library: FO5A; assay format: 2D, 384-well, CellTiter-Glo
How it was run: as §1

FMOC25_1 = patient-derived low-grade serous ovarian cancer cells; settings: 72 h; library: FO4B; assay format: 2D, 384-well, CellTiter-Glo
How it was run: as §1

FMOC25_2 = patient-derived low-grade serous ovarian cancer cells; settings: 72 h; library: FO5A; assay format: 2D, 384-well, CellTiter-Glo
How it was run: as §1

FMOC27 = patient-derived low-grade serous ovarian cancer cells; settings: 72 h; library: FO5A; assay format: 2D, 384-well, CellTiter-Glo
How it was run: as §1

FMOC28 = patient-derived low-grade serous ovarian cancer cells; settings: 72 h; library: FO5A; assay format: 2D, 384-well, CellTiter-Glo
How it was run: as §1

SMILES | drug sensitivity score (FMOC02_1) | drug sensitivity score (FMOC02_2) | drug sensitivity score (FMOC02_3) | drug sensitivity score (FMOC03) | drug sensitivity score (FMOC04) | drug sensitivity score (FMOC06) | drug sensitivity score (FMOC09) | drug sensitivity score (FMOC11) | drug sensitivity score (FMOC14) | drug sensitivity score (FMOC17) | drug sensitivity score (FMOC22) | drug sensitivity score (FMOC24) | drug sensitivity score (FMOC25_1) | drug sensitivity score (FMOC25_2) | drug sensitivity score (FMOC27) | drug sensitivity score (FMOC28)
Nc1ncnc2c1c(COc1cccc(Cl)c1)nn2C1CCOCC1 | 0.5 | 1 | 0.4 | 0 | 0 | 0 | 0 | 0 | 0.3 | 0 | 0 | 0 | 0.6 | 1.9 | 0.8 | 0
O=C(O)c1ccc(-c2c[nH]c3ncc(-c4ccccc4)cc23)cc1C1CCCC1 | 0 | 0 | 0 | 0.5 | 0 | 0 | 0 | 0 | 0 | 0 | 0.8 | 0.65 | 0 | 0.4 | 0 | 2.9
O=c1[nH]c(C2CCCN2)nc2c1oc1ccc(Cl)cc12 (stereo not drawn) | 2.7 | 0 | 3.9 | 0.3 | 0 | 0 | 0 | 0.4 | 0 | 0 | 0 | 0 | 2 | 0 | 0 | 4.4
CN(C(=O)c1ccc(F)cc1C(F)(F)F)C1CCN(c2nnc(-c3ccnn3C)c3ccccc23)CC1 [Taladegib] | 0 | 0 | 0 | 0 | 0 | 0 | 0 | 0 | 0 | 0 | 0 | 0 |  | 0 | 0 | 0
CN1CCC(COc2cnc(-c3cccc(Cn4nc(-c5cccc(C#N)c5)ccc4=O)c3)nc2)CC1 [Tepotinib] | 0.3 | 1.6 | 3.7 | 0.2 | 0.75 | 0 | 0 | 0 | 0 | 0.5 | 0 | 1.9 |  | 2.3 | 0 | 3.4
CC#CC(=O)N1CC[C@@H](n2c(=O)n(-c3ccc(Oc4ccccc4)cc3)c3c(N)ncnc32)C1 [Tirabrutinib] | 3.9 | 3.9 | 3.5 | 1.8 | 0 | 0 | 0 | 1.6 | 0 | 2.6 | 0 | 0 |  | 3.5 | 1.1 | 0
O=c1[nH]c(=O)n([C@H]2C[C@H](O)[C@@H](CO)O2)cc1C(F)(F)F [Trifluridine] | 0 | 0 | 0 | 0 | 0 | 1.2 | 0 | 0.3 | 0 | 0 | 0 | 0 |  | 0.2 | 0.5 | 0
Cc1cc(Nc2ncnc3ccc(NC4=NC(C)(C)CO4)cc23)ccc1Oc1ccn2ncnc2c1 [Tucatinib] | 0 | 0.1 | 0 | 0 | 0 | 0 | 0 | 0 | 0 | 0 | 0 | 0 |  | 0.5 | 0 | 1
CC[C@@H]1CN(C(=O)NCC(F)(F)F)C[C@@H]1c1cnc2cnc3[nH]ccc3n12 [Upadacitinib] | 0 | 0 | 0 | 0 | 0.1 | 1.3 | 0 | 0 | 0 | 0 | 0 | 1.2 |  | 0 | 0 | 2.1
CCCCOc1nc(N)c2c(n1)N(Cc1cccc(CN3CCCC3)c1)CC(=O)N2 [Vesatolimod] | 0 | 0 | 0 | 0 | 0 | 0 | 0.2 | 0 | 0 | 0 | 0 | 0 |  | 0.1 | 0 | 0
COc1cccc(-c2ccc(NC(=O)C3=C(C(=O)O)CCC3)c(F)c2)c1 [Vidofludimus] | 0 | 0 | 0 | 0.4 | 0.05 | 0 | 0 | 0.6 | 0 | 0 | 0 | 0 |  | 2.5 | 0 | 0
CC[C@]12C=CCN3CC[C@@]4(c5cc([C@@]6(C(=O)OC)C[C@@H]7C[C@@H](C(C)(F)F)CN(Cc8c6[nH]c6ccccc86)C7)c(OC)cc5N(C)[C@H]4[C@@](O)(C(=O)OC)[C@@H]1OC(C)=O)[C@@H]32 [Vinflunine] | 3.6 | 3.2 | 5.8 | 1.7 | 4.1 | 0.8 | 3.6 | 3.4 | 0 | 5.1 | 0.9 | 0 |  | 3.6 | 0.6 | 1.3
